Inhibition data for one compound are collected here from paper PMC6934184, “Selective DNA-PKcs inhibition extends the therapeutic index of localized radiotherapy and chemotherapy” (The Journal of Clinical Investigation, 2019).

This test addresses T1, PI4KB (PI4K beta) (Homo sapiens, UniProt Q9UBF8).
T1 construct: purchased Thermo Fisher Scientific (Life Technologies) SelectScreen
Nature of the test: SelectScreen Adapta. In kind it is biochemical. Summed up: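 NU5455 was profiled across the SelectScreen Broad panel of kinase activity and binding assays. Z'LYTE reactions such as CSF1R ran at apparent Km ATP, while the Adapta CAMK1 assay used ATP listed as 10. Values are given as percent.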

T1 sequence (Q9UBF8 whole entry): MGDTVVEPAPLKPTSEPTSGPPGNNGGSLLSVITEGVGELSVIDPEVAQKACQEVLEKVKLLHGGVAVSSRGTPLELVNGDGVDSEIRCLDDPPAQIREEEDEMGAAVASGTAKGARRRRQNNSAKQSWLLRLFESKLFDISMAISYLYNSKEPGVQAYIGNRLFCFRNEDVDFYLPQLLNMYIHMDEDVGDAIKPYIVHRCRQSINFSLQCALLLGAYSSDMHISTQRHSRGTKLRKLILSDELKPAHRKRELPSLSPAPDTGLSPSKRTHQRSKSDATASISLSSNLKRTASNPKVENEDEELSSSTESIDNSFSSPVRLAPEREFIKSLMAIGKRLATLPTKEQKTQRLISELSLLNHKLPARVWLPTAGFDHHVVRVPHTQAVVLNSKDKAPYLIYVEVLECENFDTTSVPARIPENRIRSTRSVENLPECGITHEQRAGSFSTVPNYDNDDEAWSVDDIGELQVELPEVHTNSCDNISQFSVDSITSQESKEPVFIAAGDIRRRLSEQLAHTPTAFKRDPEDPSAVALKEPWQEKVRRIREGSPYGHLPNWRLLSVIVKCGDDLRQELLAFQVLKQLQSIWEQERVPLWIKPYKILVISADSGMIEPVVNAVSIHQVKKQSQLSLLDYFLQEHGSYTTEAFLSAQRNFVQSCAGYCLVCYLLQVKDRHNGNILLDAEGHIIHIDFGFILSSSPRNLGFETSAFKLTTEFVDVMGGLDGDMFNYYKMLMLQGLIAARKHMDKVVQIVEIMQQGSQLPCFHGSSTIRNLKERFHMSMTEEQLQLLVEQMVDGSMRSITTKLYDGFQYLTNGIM

With `CN(C(=O)CN1CCOCC1)c1ccc2sc3c(-c4cccc5c(=O)cc(N6CC7CCC(C6)O7)oc45)cccc3c2c1` [NU5455], the inhibition at 1 µM is -4.7%.

As usually defined, the inhibition is the drop in the measured response relative to a control, in per cent.
